According to ChEMBL document CHEMBL1132891, “Carbacyclic peptide mimetics as VCAM-VLA-4 antagonists” (Bioorg Med Chem Lett, 2000):

These molecules were tested against T1, Integrin alpha-4 (Homo sapiens, UniProt P13612) (assay: Inhibitory concentration against VLA-4 receptor using human VCAM-VLA-4 binding assay).
T1 sequence (P13612 whole entry): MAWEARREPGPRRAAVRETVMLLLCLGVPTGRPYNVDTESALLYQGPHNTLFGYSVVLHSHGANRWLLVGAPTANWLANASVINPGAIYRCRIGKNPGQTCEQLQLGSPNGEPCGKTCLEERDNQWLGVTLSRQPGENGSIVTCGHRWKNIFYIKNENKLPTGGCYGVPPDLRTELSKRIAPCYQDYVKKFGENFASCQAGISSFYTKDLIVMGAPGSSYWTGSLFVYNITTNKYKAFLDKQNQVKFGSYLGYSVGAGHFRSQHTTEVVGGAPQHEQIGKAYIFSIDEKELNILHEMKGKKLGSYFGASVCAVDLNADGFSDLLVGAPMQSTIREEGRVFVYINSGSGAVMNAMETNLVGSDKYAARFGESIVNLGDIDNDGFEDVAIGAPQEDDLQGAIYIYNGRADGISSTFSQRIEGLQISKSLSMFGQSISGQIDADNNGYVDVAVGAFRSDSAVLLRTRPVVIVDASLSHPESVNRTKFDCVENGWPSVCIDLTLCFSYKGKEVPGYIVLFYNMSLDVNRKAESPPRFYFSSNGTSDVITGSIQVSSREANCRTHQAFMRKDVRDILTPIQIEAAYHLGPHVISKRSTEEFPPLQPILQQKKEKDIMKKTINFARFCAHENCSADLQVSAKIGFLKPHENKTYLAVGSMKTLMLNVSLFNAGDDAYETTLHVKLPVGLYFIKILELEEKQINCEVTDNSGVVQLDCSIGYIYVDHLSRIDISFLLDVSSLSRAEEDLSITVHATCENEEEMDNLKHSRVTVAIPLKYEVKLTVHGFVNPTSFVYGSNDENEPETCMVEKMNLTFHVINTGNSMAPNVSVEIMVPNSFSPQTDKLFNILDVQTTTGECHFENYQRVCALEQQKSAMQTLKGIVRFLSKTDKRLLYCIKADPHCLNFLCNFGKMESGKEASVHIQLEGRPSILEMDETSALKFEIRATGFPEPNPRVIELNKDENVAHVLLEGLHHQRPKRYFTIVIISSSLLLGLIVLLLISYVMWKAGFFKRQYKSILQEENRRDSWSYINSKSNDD
`N[C@@H](Cc1ccc(O)cc1)C(=O)N/C1=C/CCCC[C@@H](C(=O)O)NC(=O)C2(CCCC2)CCNC1=O` showed an IC50 of 330 nM.
With `N[C@@H](Cc1ccc(O)cc1)C(=O)N[C@H]1CSSC[C@@H](C(=O)O)NC(=O)C2(CCCC2)CCNC1=O` the IC50 was 0.5 nM.
For `N[C@@H](Cc1ccc(O)cc1)C(=O)N/C1=C/CCC[C@@H](C(=O)O)NC(=O)C2(CCCC2)CCNC1=O`, the IC50 was 160 nM.
Molecule `N[C@@H](Cc1ccc(O)cc1)C(=O)NC1CCCC[C@@H](C(=O)O)NC(=O)C2(CCCC2)CCNC1=O` (stereo in doubt; 14a) has an IC50 of 44 nM.
Work on `N[C@@H](Cc1ccc(O)cc1)C(=O)NC1CCCCC[C@@H](C(=O)O)NC(=O)C2(CCCC2)CCNC1=O` (stereo in doubt; 14b) yielded an IC50 of 550 nM.
Molecule `N[C@@H](Cc1ccc(O)cc1)C(=O)NC1CCCC[C@@H](C(=O)O)NC(=O)C2(CCCC2)CCNC1=O` (stereo in doubt; 15a) has an IC50 of 89 nM.
`N[C@@H](Cc1ccc(O)cc1)C(=O)NC1CCCCC[C@@H](C(=O)O)NC(=O)C2(CCCC2)CCNC1=O` (stereo in doubt; 15b) gave an IC50 of 750 nM.
